According to ChEMBL document CHEMBL3991601, “The target landscape of clinical kinase drugs” (Science, 2017):
Active and inactive are the calls of the source.

Key:
[1] = biological target: T1, Acyl-CoA dehydrogenase family member 11 (Homo sapiens, UniProt Q709F0)
T1 sequence (Q709F0 whole entry): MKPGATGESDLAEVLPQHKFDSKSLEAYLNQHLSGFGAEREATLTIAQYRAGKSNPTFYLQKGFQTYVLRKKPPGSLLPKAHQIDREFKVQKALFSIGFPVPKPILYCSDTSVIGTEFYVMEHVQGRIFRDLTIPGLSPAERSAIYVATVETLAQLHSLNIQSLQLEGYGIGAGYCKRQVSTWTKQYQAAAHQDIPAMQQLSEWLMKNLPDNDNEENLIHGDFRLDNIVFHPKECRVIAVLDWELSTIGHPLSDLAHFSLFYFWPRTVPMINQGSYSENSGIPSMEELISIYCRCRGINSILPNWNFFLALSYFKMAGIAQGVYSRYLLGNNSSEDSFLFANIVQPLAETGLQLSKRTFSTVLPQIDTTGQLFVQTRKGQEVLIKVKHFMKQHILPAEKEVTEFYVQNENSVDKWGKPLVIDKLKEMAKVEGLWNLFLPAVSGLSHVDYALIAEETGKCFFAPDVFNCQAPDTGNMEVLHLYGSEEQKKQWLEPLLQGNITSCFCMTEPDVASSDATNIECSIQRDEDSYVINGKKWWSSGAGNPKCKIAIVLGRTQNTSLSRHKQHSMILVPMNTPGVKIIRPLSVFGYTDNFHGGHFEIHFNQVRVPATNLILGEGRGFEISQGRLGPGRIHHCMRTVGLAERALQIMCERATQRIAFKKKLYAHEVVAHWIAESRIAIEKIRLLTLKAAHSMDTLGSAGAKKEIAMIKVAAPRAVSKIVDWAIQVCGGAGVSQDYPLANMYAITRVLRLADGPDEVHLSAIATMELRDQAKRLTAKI

Actin-related protein 2 = Actin-related protein 2 (Homo sapiens, UniProt P61160)
[2] = biological target: T2, Bone morphogenetic protein receptor type-2 (Homo sapiens, UniProt Q13873)
T2 sequence (Q13873 whole entry): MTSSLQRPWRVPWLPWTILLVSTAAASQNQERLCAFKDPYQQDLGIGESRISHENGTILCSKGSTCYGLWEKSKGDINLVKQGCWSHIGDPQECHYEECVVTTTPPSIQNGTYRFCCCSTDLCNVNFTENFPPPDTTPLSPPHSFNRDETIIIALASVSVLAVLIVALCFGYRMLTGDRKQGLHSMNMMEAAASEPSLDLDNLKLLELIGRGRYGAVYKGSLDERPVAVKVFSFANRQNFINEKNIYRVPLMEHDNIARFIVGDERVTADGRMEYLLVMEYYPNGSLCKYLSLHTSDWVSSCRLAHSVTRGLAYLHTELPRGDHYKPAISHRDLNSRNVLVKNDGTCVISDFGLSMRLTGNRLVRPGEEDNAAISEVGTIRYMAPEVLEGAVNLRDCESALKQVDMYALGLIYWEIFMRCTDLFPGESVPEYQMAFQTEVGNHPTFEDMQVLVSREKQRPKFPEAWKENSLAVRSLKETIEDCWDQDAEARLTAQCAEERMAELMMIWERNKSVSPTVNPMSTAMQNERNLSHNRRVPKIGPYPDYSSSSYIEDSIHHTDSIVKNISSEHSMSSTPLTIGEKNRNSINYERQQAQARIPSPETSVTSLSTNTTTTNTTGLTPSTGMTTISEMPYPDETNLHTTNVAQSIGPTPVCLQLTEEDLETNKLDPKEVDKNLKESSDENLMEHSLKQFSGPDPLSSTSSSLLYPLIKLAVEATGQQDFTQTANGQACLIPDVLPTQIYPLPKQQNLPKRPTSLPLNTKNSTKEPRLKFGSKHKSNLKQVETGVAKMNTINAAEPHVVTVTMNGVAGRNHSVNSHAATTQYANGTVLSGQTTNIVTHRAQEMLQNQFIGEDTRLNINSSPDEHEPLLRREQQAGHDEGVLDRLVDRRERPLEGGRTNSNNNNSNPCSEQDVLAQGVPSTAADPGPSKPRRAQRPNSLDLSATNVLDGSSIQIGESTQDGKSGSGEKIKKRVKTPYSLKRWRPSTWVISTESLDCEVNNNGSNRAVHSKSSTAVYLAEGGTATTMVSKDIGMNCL

[3] = biological target: Casein kinase I isoform gamma-1 (Homo sapiens, UniProt Q9HCP0)
[4] = biological target: Serine/threonine-protein kinase/endoribonuclease IRE2 (Homo sapiens, UniProt Q76MJ5)
[5] = biological target: T3, Ras-related protein Rab-27A (Homo sapiens, UniProt P51159)
T3 sequence (P51159 whole entry): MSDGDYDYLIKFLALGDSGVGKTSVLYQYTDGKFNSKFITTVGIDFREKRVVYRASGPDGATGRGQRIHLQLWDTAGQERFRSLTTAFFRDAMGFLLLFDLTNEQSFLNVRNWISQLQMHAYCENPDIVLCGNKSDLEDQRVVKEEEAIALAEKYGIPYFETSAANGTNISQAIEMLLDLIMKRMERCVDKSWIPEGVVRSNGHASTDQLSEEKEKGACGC

[6] = biological target: Ras-related protein Rab-6A (Homo sapiens, UniProt P20340)
[7] = biological target: GTP-binding nuclear protein Ran (Homo sapiens, UniProt P62826)
[8] = biological target: Serine/threonine-protein kinase 26 (Homo sapiens, UniProt Q9P289)
[9] = biological target: T4, Tyrosine-protein kinase Tec (Homo sapiens, UniProt P42680)
T4 sequence (P42680 whole entry): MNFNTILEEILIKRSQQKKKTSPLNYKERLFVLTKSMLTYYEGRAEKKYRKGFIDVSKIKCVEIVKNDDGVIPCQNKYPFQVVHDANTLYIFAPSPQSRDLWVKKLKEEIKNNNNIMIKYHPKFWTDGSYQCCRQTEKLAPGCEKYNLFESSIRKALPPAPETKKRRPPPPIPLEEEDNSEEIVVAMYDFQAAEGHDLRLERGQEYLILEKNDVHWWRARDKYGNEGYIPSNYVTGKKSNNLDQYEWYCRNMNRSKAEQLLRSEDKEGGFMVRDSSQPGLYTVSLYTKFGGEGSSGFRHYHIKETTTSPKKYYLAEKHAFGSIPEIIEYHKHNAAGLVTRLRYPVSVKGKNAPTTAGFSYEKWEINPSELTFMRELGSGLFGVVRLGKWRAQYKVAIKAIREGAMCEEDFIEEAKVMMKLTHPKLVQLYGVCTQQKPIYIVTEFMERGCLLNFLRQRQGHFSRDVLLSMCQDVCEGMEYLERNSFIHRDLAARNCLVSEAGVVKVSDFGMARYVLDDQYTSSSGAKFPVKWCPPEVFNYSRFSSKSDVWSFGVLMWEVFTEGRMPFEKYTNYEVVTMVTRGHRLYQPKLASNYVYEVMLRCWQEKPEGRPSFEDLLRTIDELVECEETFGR
Further: in the data inactive means no Kd found up to 30 µM.

Sequence of Ras-related protein Rab-6A (P20340 whole entry): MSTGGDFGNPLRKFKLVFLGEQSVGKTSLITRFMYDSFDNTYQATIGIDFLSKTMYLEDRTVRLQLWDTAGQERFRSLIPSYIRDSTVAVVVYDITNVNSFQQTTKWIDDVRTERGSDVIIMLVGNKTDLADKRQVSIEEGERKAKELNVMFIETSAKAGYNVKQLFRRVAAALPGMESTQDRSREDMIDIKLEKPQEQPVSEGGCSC
Sequence of Serine/threonine-protein kinase/endoribonuclease IRE2 (Q76MJ5 whole entry): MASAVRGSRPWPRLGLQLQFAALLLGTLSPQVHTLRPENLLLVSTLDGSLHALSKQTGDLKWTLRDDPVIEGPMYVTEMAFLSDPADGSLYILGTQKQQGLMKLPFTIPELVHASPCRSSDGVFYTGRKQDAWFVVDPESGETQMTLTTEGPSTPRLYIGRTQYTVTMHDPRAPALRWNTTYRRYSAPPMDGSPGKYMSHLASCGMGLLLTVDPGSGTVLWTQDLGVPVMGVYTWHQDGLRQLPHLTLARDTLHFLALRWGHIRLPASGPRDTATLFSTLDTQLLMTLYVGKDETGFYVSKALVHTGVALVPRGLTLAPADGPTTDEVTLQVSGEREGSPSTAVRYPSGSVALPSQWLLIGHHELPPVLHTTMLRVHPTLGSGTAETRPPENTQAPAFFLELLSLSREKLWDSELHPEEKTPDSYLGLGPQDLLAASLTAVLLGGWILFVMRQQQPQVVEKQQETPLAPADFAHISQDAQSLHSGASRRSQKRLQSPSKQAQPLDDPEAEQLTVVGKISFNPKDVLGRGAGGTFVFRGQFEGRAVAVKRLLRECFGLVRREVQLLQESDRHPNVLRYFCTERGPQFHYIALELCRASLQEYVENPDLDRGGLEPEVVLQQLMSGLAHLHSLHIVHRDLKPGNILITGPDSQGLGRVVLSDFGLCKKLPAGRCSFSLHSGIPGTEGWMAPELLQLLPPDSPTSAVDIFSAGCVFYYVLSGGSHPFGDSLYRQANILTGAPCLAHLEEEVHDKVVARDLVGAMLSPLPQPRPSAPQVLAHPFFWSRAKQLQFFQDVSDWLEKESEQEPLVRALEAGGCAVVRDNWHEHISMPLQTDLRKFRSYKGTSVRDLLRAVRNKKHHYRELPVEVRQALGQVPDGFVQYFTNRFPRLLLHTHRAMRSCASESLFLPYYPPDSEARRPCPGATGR
Sequence of Serine/threonine-protein kinase 26 (Q9P289 whole entry): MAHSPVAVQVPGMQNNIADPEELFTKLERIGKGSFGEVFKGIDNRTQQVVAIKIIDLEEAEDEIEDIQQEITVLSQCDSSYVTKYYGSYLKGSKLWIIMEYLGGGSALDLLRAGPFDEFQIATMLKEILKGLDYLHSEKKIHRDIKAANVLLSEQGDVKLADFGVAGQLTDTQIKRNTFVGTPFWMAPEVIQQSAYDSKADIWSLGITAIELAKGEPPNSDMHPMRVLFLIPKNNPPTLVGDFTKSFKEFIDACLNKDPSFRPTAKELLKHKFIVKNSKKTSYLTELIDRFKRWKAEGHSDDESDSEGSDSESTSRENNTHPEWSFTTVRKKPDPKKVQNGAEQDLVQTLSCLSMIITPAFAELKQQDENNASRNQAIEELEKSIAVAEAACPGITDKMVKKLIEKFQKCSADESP
Sequence of Casein kinase I isoform gamma-1 (Q9HCP0 whole entry, canonical isoform): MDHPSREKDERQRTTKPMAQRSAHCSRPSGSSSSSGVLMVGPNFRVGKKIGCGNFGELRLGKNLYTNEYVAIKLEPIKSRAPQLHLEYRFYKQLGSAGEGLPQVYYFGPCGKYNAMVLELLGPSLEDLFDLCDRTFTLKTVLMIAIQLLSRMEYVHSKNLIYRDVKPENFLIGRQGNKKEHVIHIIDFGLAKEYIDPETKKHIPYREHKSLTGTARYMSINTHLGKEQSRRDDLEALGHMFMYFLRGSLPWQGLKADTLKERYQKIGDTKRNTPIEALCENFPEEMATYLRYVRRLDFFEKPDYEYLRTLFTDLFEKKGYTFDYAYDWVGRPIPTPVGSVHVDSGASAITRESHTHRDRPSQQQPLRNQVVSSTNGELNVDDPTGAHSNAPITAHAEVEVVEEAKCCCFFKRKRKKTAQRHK

| Structure (SMILES) | Kd [1] | Kd (Actin-related protein 2) | Kd [2] | Kd [3] | Kd [4] | Kd [5] | Kd [6] | Kd [7] | Kd [8] | Kd [9] |
| --- | --- | --- | --- | --- | --- | --- | --- | --- | --- | --- |
| Cc1cc(-c2cc(O)ccc2Cl)cc2nnc(Nc3ccc(OCCN4CCCC4)cc3)nc12 | > 30 µM (inactive) | > 30 µM (inactive) | 0.003 µM (active) | > 30 µM (inactive) | > 30 µM (inactive) | > 30 µM (inactive) | > 30 µM (inactive) | > 30 µM (inactive) | > 30 µM (inactive) | > 30 µM (inactive) |
| Cc1cc([C@@H](C)Nc2ccccc2C(=O)O)c2nc(N3CCOCC3)cc(=O)n2c1 [AZD-6482] | > 30 µM (inactive) | > 30 µM (inactive) | > 30 µM (inactive) | > 30 µM (inactive) | > 30 µM (inactive) | > 30 µM (inactive) | > 30 µM (inactive) | > 30 µM (inactive) | > 30 µM (inactive) | > 30 µM (inactive) |
